Converted amounts (≈) assume the structure as drawn.
Columns and labels:
[1] = system: Septoria tritici; assay: standard Septoria tritici MIC assay (ATCC 26517, CLSI protocol); format: cell-based; conditions: Zymoseptoria tritici, ATCC26517, range stated for the three compounds together
[2] = system: A. fumigatus; assay: A. fumigatus MIC, CLSI M38-A2; conditions: Aspergillus fumigatus, read-out: Aspergillus MIC
Description: A. fumigatus MICs were determined at both 50% and 100% growth inhibition following CLSI guidelines at a concentration range of 64-0.062 μg/mL (CLSI M38-A2).

[3] = system: C. albicans; assay: Minimum Inhibitory Concentration (MIC), C. albicans, CLSI M27-A2; format: cell-based; conditions: Candida albicans MIC50; about 50% growth reduction; approximately 48 h at 35±1° C.
Description: Compounds were assessed for their ability to inhibit the growth of common strains of fungus, C. albicans using a standardized procedure (CLSI M27-A2).
Stock solutions of the test compounds and standards were prepared in DMSO at 1600 μg/mL (C. albicans). Eleven, serial, one-half dilutions of compounds were prepared in 96-well plates in RPMI+MOPS. The assay concentration ranges were 1-0.001 μg/mL (C. albicans). Cell suspensions of C. albicans were prepared and added to each well at concentrations of approximately 3.7×10^3 colony-forming-units per milliliter (cfu/mL). All testing was in duplicate. The inoculated plates were incubated for approximately 48 h at 35±1° C. At the completion of incubation the wells of each plate were evaluated visually for the presence of fungal growth.
For voriconazole the M1C was the concentration which reduced C. albicans growth by 50% (per CLST, M27-A2). For QC purposes C. krusei isolate ATCC 6258 (4.0×10^3 cfu/mL) was included in the VOR assay.

[4] = system: A. fumigatus; assay: standard 4-day mouse model of A. fumigatus, kidney fungal burden; format: in vivo; conditions: oral administration at 20 mg/kg each of 4 days
Description: For example, oral administration of Compound (−)-9 at 20 mg/kg each of 4 days reduced mouse kidney fungal burden 84% compared to control.

[5] = system: Septoria; assay: protection from fungal growth in planta, Septoria; format: in vivo; conditions: applied at 50 ppm; Septoria pathogen
[6] = system: Puccinia; assay: protection from fungal growth in planta, Puccinia; format: in vivo; conditions: applied at 50 ppm; Puccinia pathogen

## OC(Cn1cnnn1)(c1ccc(F)cc1F)C(F)(F)c1ccc(C#Cc2ccc(F)cc2)cn1 (racemic) [Example 3, 2-(2,4-Difluorophenyl)-1,1-difluoro-1-(5-((4-fluorophenyl)ethynyl)pyridin-2-yl)-3-(1H-tetrazol-1-yl)propan-2-ol]
[1]
  MIC: 0.25 to 1 µg/mL (≈ 0.53 to 2.12 µM)

## OC(Cn1cnnn1)(c1ccc(F)cc1F)C(F)(F)c1ccc(C#Cc2cccc(Cl)c2)cn1 (racemic) [Example 21, 1-(5-((3-chlorophenyl)ethynyl)pyridin-2-yl)-2-(2,4-difluorophenyl)-1,1-difluoro-3-(1H-tetrazol-1-yl)propan-2-ol]
[1]
  MIC: 0.25 to 1 µg/mL (≈ 0.512 to 2.05 µM)

## OC(Cn1cnnn1)(c1ccc(F)cc1F)C(F)(F)c1ccc(C#Cc2ccc(OCc3ccc(OC(F)(F)F)cc3)cc2)cn1 (racemic) [Example 101, 2-(2,4-difluorophenyl)-1,1-difluoro-3-(1H-tetrazol-1-yl)-1-(5-((4-(4-(trifluoromethoxy)benzyloxy)phenyl)ethynyl)pyridin-2-yl)propan-2-ol]
[2]
  MIC: 2 µg/mL (≈ 3.11 µM)
[3]
  MIC: 0.25 µg/mL (≈ 0.388 µM)

## OC(c1ccc(C#Cc2ccc(C(F)(F)C(O)(Cn3cnnn3)c3ccc(F)cc3F)nc2)cc1)C(F)(F)F (stereo not drawn) [Compound (−)-9, 2-(2,4-difluorophenyl)-1,1-difluoro-3-(1H-tetrazol-1-yl)-1-(5-((4-(2,2,2-trifluoro-1-hydroxyethyl)phenyl)ethynyl)pyridin-2-yl)propan-2-ol]
[4]
  reduced mouse kidney fungal burden compared to control: 84%

## OC(Cn1cnnn1)(c1ccc(F)cc1F)C(F)(F)c1ccc(C#Cc2ccc(C(F)(F)F)cc2)cn1 (racemic) [Example 5, 2-(2,4-Difluorophenyl)-1,1-difluoro-3-(1H-tetrazol-1-yl)-1-(5-((4-(trifluoromethyl)phenyl)ethynyl)pyridin-2-yl)propan-2-ol]
[2]
  MIC: 8 µg/mL (≈ 15.3 µM)
[3]
  MIC: 0.016 µg/mL (≈ 0.0307 µM)

## OC(Cn1cnnn1)(c1ccc(F)cc1F)C(F)(F)c1ccc(C#Cc2ccc(OCc3ccc(Cl)cc3F)cc2)cn1 (racemic) [Example 108, 1-(5-((4-(4-chloro-2-fluorobenzyloxy)phenyl)ethynyl)pyridin-2-yl)-2-(2,4-difluorophenyl)-1,1-difluoro-3-(1H-tetrazol-1-yl)propan-2-ol]
[2]
  MIC: 4 µg/mL (≈ 6.54 µM)
[3]
  MIC: 0.062 µg/mL (≈ 0.101 µM)

## C[C@@H](c1ncncc1F)[C@](O)(Cn1cncn1)c1ccc(F)cc1F [Voriconazole, reference compound]
[2]
  MIC: 0.25 µg/mL (≈ 0.716 µM)
[3]
  MIC: 0.016 µg/mL (≈ 0.0458 µM)

## OC(c1ccc(C#Cc2ccc(C(F)(F)C(O)(Cn3cnnn3)c3ccc(F)cc3F)nc2)cc1)C(F)(F)F (racemic) [Example 9, 2-(2,4-difluorophenyl)-1,1-difluoro-3-(1H-tetrazol-1-yl)-1-(5-((4-(2,2,2-trifluoro-1-hydroxyethyl)phenyl)ethynyl)pyridin-2-yl)propan-2-ol]
[2]
  MIC: 0.5 µg/mL (≈ 0.907 µM)
[3]
  MIC: ≤ 0.001 µg/mL

## OC(Cn1cnnn1)(c1ccc(F)cc1F)C(F)(F)c1ccc(C#Cc2ccc(Cl)cc2)cn1 (racemic) [Example 2, 1-(5-((4-Chlorophenyl)ethynyl)pyridin-2-yl)-2-(2,4-difluorophenyl)-1,1-difluoro-3-(1H-tetrazol-1-yl)propan-2-ol]
[2]
  MIC: 8 µg/mL (≈ 16.4 µM)
[5]
  protection from fungal growth in planta: provide protection from fungal growth
[6]
  protection from fungal growth in planta: provide protection from fungal growth
[3]
  MIC: 0.004 µg/mL (≈ 0.0082 µM)
[1]
  MIC: 0.25 to 1 µg/mL (≈ 0.512 to 2.05 µM)
